According to US20070243548A1, “Calumenin-directed diagnostics and therapeutics for cancer and chemotherapeutic drug resistance” (priority 2006, published 2007):

Key:
MCF-7 cells = experiment: Phase contrast viability assay (cell morphology); format: cell-based, human; conditions: calumenin-depleted MCF-7 cells; FIG. 3
calumenin = experiment: Immunoblot of calumenin expression after siRNA transfection of MCF-7 cells; format: cell-based, human; conditions: compared to mock and control siRNA, FIG. 2
Excerpt: To establish the importance of calumenin to the expression of the drug-resistant phenotype in MCF-7 cell lines, calumenin expression was silenced using RNAi. Briefly, the following siRNA duplexes targeting the human calumenin mRNA were designed and purchased either from Ambion (Austin, Tex.) or Invitrogen (Carlsbad, Calif.). The siRNA duplex sequences corresponding to nucleotides […] (REFSEQ ID NUMBER: NM_001428) targeting the start of the calumenin mRNA transcript were:
For a typical siRNA transfection, […] of the annealed siRNA duplex was mixed with 1.4 ml of Opti-MEM reagent (Invitrogen). In another tube, […] of Oligofectamine reagent (Invitrogen, Carlsbad, Calif.) was mixed with […] of Opti-MEM. The two solutions were combined and mixed gently by inversion and incubated for 20 min. at RT. […]
To determine the ability of cells to proliferate after they were transfected with […] or control siRNAs as indicated above, the cells were seeded the next day in a 96-well plate at 5×10^3 cells/well in quadruplicate. […] The resulting fluorescence was measured in a Wallac microplate reader (PerkinElmer, Inc., Boston, Mass.) using a 535 nm filter. […] The number of cells was determined by extrapolation from a standard curve.

[1] = test system: hematological tumor cells; experiment: Hematological tumors in MHC-matched mice; format: in vivo
Procedure: In order to determine whether targeting calumenin is useful in treating a preexisting cancerous condition, MHC-matched mice, 5 to 7 weeks old, receive a subcutaneous (s.c.) injection of 5×10^5 hematological tumor cells, and tumors are allowed to form. Tumor growth starting on the first day of treatment is measured by palpitation, and the volume of the xenograft is monitored every 4 days. Tumors are allowed to grow to a sufficient size (5.5 mm) for appropriate analysis of the effects of calumenin treatment on tumor sensitivity to chemotherapeutic drugs. Mice are then treated with a calumenin siRNA (3 μg daily for 16 days) designed to decrease the level of expression of calumenin. Control mice receive no treatment, treatment with taxol or doxorubicin alone (4 mg/kg daily) or treatment with control siRNA sequences that are not complementary to murine calumenin mRNA (3 μg daily for 16 days for each treatment) in combination with taxol or doxorubicin (4 mg/kg daily). Taxol and doxorubicin can be obtained commercially from Sigma Corp. (St. Louis, Mo.).
The animal's weight is measured every 4 days. Tumor growth starting on the first day of treatment is measured by palpitation and the volume of the xenograft is monitored every 4 days. The mice are anaesthetized and sacrificed when the mean tumor weight is over 1 g in the control group. Tumor tissue is excised from the mice and its weight is measured. Tumor weights from mice treated with the calumenin siRNA and chemotherapeutic drugs are compared to tumor weights from mice treated with control siRNA and chemotherapeutic drugs. Tumor cell count is determined by trypsinizing tumors in DMEM medium supplemented with 10% fetal bovine serum until cells are in free suspension. Cells are then transferred to 6-well plates for counting. Cell counts are compared. All experiments are performed in triplicate.
In order to determine whether targeting calumenin is useful in treating a preexisting cancerous condition, MHC-matched mice, 5 to 7 weeks old, receive an s.c. injection of 5×10^5 hematological tumor cells, and tumors are allowed to form. Tumor growth starting on the first day of treatment is measured by palpitation and the volume of the xenograft is monitored every 4 days. Tumors are allowed to grow to a sufficient size (5.5 mm) for appropriate analysis of the effects of calumenin treatment on tumor sensitivity to chemotherapeutic drugs. […]
The animal's weight is measured every 4 days. Tumor growth starting on the first day of treatment is measured and the volume of the xenograft is monitored every 4 days. […] Tumor tissue is excised from the mice and its weight is measured. […] Tumor cell count is determined by trypsinizing tumors in DMEM medium supplemented with 10% fetal bovine serum until cells are in free suspension. […]

“Calumenin siRNA: siRNA duplex targeting human calumenin mRNA; sense 5′-GAAGGACCGUGUACAUCAU-3′ (SEQ ID NO: 1), anti-sense 5′-AUGAUGUACACGGUCCUUC-3′ (SEQ ID NO: 2), 3′TT overhangs (3' TT overhangs on both strands, further chemistry not given here)” was tested, and the cell morphology (MCF-7 cells) was “more rounded cell morphology”, the calumenin expression (calumenin) was “significantly decreased” and the “prognosis (i.e., smaller tumor or fewer tumor cells)” value ([1]; composition vs only the targeting agent or only the chemotherapeutic drug) was “better prognosis”. For the same substance, the “total cell number in tumors” value ([1]; hematological cancers, vs mice treated with control siRNA) was “lower”, the tumors by weight ([1]; hematological cancers, vs mice treated with control siRNA, 3 μg siRNA daily for 16 days) was “smaller” and the “sensitivity of tumors to chemotherapeutic drug treatment regimes” value ([1]; hematological tumors in mice) was “increases”.
